Consider 2 compounds from patent publication US9061060B2, “Deuterated benzylbenzene derivatives and methods of use” (Theracos Inc., priority 2008, dated 2015).

The target in data set [1] is T1, CYP1A2 (Homo sapiens, UniProt P05177).
T1 construct: purchased Promega
T1 sequence (P05177 1-516): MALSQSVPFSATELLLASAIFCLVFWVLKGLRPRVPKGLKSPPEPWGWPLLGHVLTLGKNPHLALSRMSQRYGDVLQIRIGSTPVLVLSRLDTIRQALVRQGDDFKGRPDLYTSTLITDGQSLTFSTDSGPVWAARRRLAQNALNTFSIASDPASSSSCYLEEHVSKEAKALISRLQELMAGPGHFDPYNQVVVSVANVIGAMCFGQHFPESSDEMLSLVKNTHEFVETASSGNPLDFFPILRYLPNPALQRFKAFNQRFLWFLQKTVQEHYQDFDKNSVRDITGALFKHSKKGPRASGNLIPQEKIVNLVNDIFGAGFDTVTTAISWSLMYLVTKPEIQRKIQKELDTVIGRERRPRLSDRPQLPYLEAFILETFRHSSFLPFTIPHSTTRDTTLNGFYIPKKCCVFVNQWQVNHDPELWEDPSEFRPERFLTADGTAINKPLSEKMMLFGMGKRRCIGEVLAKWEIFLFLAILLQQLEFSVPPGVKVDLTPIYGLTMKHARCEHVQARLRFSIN
In words: P450-Glo CYP screening kit, CYP1A2 inhibition. The following applies: luminescence, read-out: IC50 1A2. Format: in vitro ADME. An excerpt:
P450-Glo™ CYP Screening Kits for CYP1A2, CYP3A4 and CYP2C19 were purchased from Promega. […] Luminescence was quantified using a Victor 3 spectrophotometer (PerkinElmer).

Data set [2] has as its target T2, human SGLT1 (Homo sapiens, UniProt P13866).
T2 sequence (P13866 1-664): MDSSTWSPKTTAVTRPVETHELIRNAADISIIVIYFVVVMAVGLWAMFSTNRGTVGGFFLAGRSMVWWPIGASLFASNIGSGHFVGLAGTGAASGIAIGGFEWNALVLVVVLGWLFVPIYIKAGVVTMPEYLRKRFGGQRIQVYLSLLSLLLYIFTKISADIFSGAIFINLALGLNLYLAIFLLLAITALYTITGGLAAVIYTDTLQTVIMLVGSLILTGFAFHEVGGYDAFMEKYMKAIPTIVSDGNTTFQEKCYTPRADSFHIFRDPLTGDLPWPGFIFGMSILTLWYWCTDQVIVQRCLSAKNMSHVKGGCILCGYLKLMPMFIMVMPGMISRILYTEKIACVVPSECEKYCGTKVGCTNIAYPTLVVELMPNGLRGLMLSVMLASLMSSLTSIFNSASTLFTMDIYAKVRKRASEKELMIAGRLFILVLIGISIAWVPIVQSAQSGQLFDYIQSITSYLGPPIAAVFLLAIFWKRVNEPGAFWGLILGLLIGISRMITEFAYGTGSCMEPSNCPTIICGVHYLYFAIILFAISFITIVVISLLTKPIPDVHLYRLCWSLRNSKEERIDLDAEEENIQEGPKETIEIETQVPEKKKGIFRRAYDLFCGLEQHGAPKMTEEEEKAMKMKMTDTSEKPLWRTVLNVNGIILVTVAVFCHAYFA
The following applies: read-out: SGLT1 IC50; COS-7 cells expressing human SGLT1; 25% human serum; 2 hours.
Protocol: Full-length human SGLT1 cDNA in the pDream2.1 expression vector was obtained from GenScript Corporation and propagated in Escherichia coli strain DH5α using Luria-Bertani (LB) medium containing ampicillin. Plasmid DNA was isolated using the QIAGEN Plasmid Midi Kit (QIAGEN Inc.). […] Transfected cells were stored in DMEM containing 10% dimethyl sulfoxide (DMSO) at −80° C.
Cells expressing SGLT1 or SGLT2 were seeded on 96-well ScintiPlate scintillating plates (PerkinElmer, Inc.) in DMEM containing 10% FBS (1×10^5 cells per well in 1001 medium) incubated at 37° C. under 5% CO2 for 48 hours prior to the assay. […] Cells were washed twice with 150 μl of wash buffer (137 mM N-methylglucamine, 10 mM Tris/Hepes, pH 7.2) and methyl-α-D-[U-^14C]glucopyranoside uptake was quantified using a TopCount scintillation counter (PerkinElmer, Inc.). Sodium-dependent glucopyranoside uptake was measured by subtracting the values obtained with sodium-free buffer from those obtained using sodium buffer (average of triplicate determinations). The IC50 for SGLT2 and SGLT1 were determined, and the selectivity for SGLT2 inhibition was calculated by dividing the SGLT1 IC50 by the SGLT2 IC50.

Data set [3] in a line: Pharmacokinetic parameters in SD rats. Format: in vivo, Sprague-Dawley rats. The following applies: single oral 3 mg/kg in 30% PEG400, plasma. How it is done: The pharmacokinetic study of each test compound was conducted in 4 Sprague-Dawley rats following a single oral administration of 3 mg/kg of the compound. The dose was prepared by dissolving test article in appropriate volume of 30% PEG400. The plasma samples were collected from the orbital plexus at 0.083, 0.25, 0.50, 1.0, 2.0, 4.0, 6.0, 8.0, 12 and 24 hours post dose, and the plasma concentrations were determined by a developed LC-MS/MS method.

As for `COc1ccc(Cc2cc([C@@H]3O[C@H](CO)[C@@H](O)[C@H](O)[C@H]3O)ccc2Cl)cc1` [Ref B, (2S,3R,4R,5S,6R)-2-(4-chloro-3-(4-methoxybenzyl)phenyl)-6-(hydroxymethyl)tetrahydro-2H-pyran-3,4,5-triol, reference compound], the IC50 in data set [1] is > 1000 µM. Besides, the IC50 in data set [2] was determined as 0.54 µM. In data set [3] (Sprague-Dawley, rat), this compound gave a CL/F of 9.47 mL/min/kg. Also, the AUC(0-t) in data set [3] (Sprague-Dawley, rat, read-out: AUC0-t (mean ± SD)) is 5240 ± 715 ng·h/mL. In data set [3], the “Cmax (mean ± SD)” value amounted to 1638 ± 326 ng/mL, the “t1/2 (mean ± SD)” value is 3.55 ± 1.80 h and the “tmax (mean ± SD)” value is 0.56 ± 0.31 h.
With `[2H]C([2H])([2H])Oc1ccc(C([2H])([2H])c2cc([C@@H]3O[C@H](CO)[C@@H](O)[C@H](O)[C@H]3O)ccc2Cl)cc1` [compound 19, (2S,3R,4R,5S,6R)-2-(4-chloro-3-((4-(methoxy-d3)phenyl)methyl-d2)phenyl)-6-(hydroxymethyl)tetrahydro-2H-pyran-3,4,5-triol], the values for the IC50 in data set [1] and in data set [2] were > 1000 µM and 0.82 µM, respectively.
